Laboratory results: the NIST ThermoML archive (doi:10.1016/j.fluid.2008.09.004)
± gives the expanded uncertainty stated by the source.

What was measured:
[1] = xn = mol fraction of the nth substance listed; settings: 101 kPa, Liquid, Vibrating tube method
[2] = molar heat capacity at constant pressure; xn = mol fraction of the nth substance listed; settings: 101 kPa, Liquid, Small sample (50 mg) DSC
[3] = excess molar enthalpy (molar enthalpy of mixing); xn = mol fraction of the nth substance listed; settings: 303.15 K, 101 kPa, Liquid, Calvet calorimetry

CCCCn1cc[n+](C)c1.O=S(=O)([O-])C(F)(F)F [1-butyl-3-methylimidazolium trifluoromethanesulfonate] + CCO
Settings	mass density, [1] [kg/m3]	molar heat capacity at constant pressure, [2] [J/K/mol]
293.15 K, x1 = 0.0522	881 ± 0.4	128.2 ± 2
293.15 K, x1 = 0.0982	944.5 ± 0.3	143.3 ± 2.2
293.15 K, x1 = 0.1976	1041.9 ± 0.3	175.3 ± 2.7
293.15 K, x1 = 0.2999	1111.4 ± 0.2	207.9 ± 3.2
293.15 K, x1 = 0.3996	1160.3 ± 0.2	237.9 ± 3.7
293.15 K, x1 = 0.4973	1196.9 ± 0.2	267.2 ± 4.1
293.15 K, x1 = 0.5923	1225.3 ± 0.2	295.7 ± 4.6
293.15 K, x1 = 0.6898	1249.1 ± 0.2	326.5 ± 5.1
293.15 K, x1 = 0.7868	1268.5 ± 0.2	355.5 ± 5.5
293.15 K, x1 = 0.8756	1283.7 ± 0.2	382.4 ± 5.9
293.15 K, x1 = 0.9283	1291.6 ± 0.3	399 ± 6.2
298.15 K, x1 = 0.0522	876.7 ± 0.4	130 ± 2
298.15 K, x1 = 0.0982	940.2 ± 0.3	144.9 ± 2.2
298.15 K, x1 = 0.1976	1037.7 ± 0.3	176.8 ± 2.7
298.15 K, x1 = 0.2999	1107.2 ± 0.2	209.2 ± 3.2
298.15 K, x1 = 0.3996	1156.1 ± 0.2	239.4 ± 3.7
298.15 K, x1 = 0.4973	1192.8 ± 0.2	268.9 ± 4.2
298.15 K, x1 = 0.5923	1221.2 ± 0.2	297.3 ± 4.6
298.15 K, x1 = 0.6898	1245 ± 0.2	328.2 ± 5.1
298.15 K, x1 = 0.7868	1264.5 ± 0.2	357.6 ± 5.5
298.15 K, x1 = 0.8756	1279.7 ± 0.2	384.5 ± 6
298.15 K, x1 = 0.9283	1287.6 ± 0.3	401.2 ± 6.2
303.15 K, x1 = 0.0522	872.5 ± 0.4	131.8 ± 2
303.15 K, x1 = 0.0982	935.9 ± 0.3	146.4 ± 2.3
303.15 K, x1 = 0.1976	1033.4 ± 0.3	178.3 ± 2.8
303.15 K, x1 = 0.2999	1103 ± 0.2	210.6 ± 3.3
303.15 K, x1 = 0.3996	1152 ± 0.2	240.9 ± 3.7
303.15 K, x1 = 0.4973	1188.7 ± 0.2	270.7 ± 4.2
303.15 K, x1 = 0.5923	1217.2 ± 0.2	299 ± 4.6
303.15 K, x1 = 0.6898	1241 ± 0.2	330 ± 5.1
303.15 K, x1 = 0.7868	1260.5 ± 0.2	359.9 ± 5.6
303.15 K, x1 = 0.8756	1275.7 ± 0.2	386.8 ± 6
303.15 K, x1 = 0.9283	1283.7 ± 0.2	403.7 ± 6.3
308.15 K, x1 = 0.0522	868.2 ± 0.4	133.8 ± 2.1
308.15 K, x1 = 0.0982	931.7 ± 0.3	148.2 ± 2.3
308.15 K, x1 = 0.1976	1029.2 ± 0.3	180 ± 2.8
308.15 K, x1 = 0.2999	1098.8 ± 0.2	212.1 ± 3.3
308.15 K, x1 = 0.3996	1147.9 ± 0.2	242.6 ± 3.8
308.15 K, x1 = 0.4973	1184.7 ± 0.2	272.6 ± 4.2
308.15 K, x1 = 0.5923	1213.1 ± 0.2	301 ± 4.7
308.15 K, x1 = 0.6898	1237 ± 0.2	332 ± 5.1
308.15 K, x1 = 0.7868	1256.5 ± 0.2	362.3 ± 5.6
308.15 K, x1 = 0.8756	1271.7 ± 0.2	389.3 ± 6
308.15 K, x1 = 0.9283	1279.7 ± 0.2	406.3 ± 6.3
313.15 K, x1 = 0.0522	863.9 ± 0.4	135.8 ± 2.1
313.15 K, x1 = 0.0982	927.4 ± 0.3	150 ± 2.3
313.15 K, x1 = 0.1976	1025 ± 0.3	181.7 ± 2.8
313.15 K, x1 = 0.2999	1094.7 ± 0.2	213.7 ± 3.3
313.15 K, x1 = 0.3996	1143.8 ± 0.2	244.3 ± 3.8
313.15 K, x1 = 0.4973	1180.6 ± 0.2	274.6 ± 4.3
313.15 K, x1 = 0.5923	1209.1 ± 0.2	303 ± 4.7
313.15 K, x1 = 0.6898	1233 ± 0.2	334.1 ± 5.2
313.15 K, x1 = 0.7868	1252.5 ± 0.2	364.8 ± 5.7
313.15 K, x1 = 0.8756	1267.7 ± 0.2	391.9 ± 6.1
313.15 K, x1 = 0.9283	1275.8 ± 0.2	409 ± 6.3
318.15 K, x1 = 0.0522	859.5 ± 0.4	138 ± 2.1
318.15 K, x1 = 0.0982	923 ± 0.3	152 ± 2.4
318.15 K, x1 = 0.1976	1020.7 ± 0.3	183.6 ± 2.8
318.15 K, x1 = 0.2999	1090.5 ± 0.3	215.4 ± 3.3
318.15 K, x1 = 0.3996	1139.6 ± 0.2	246.2 ± 3.8
318.15 K, x1 = 0.4973	1176.5 ± 0.2	276.8 ± 4.3
318.15 K, x1 = 0.5923	1205 ± 0.2	305.1 ± 4.7
318.15 K, x1 = 0.6898	1229 ± 0.2	336.4 ± 5.2
318.15 K, x1 = 0.7868	1248.5 ± 0.2	367.5 ± 5.7
318.15 K, x1 = 0.8756	1263.8 ± 0.2	394.6 ± 6.1
318.15 K, x1 = 0.9283	1271.8 ± 0.2	411.9 ± 6.4

[3]
Settings	excess molar enthalpy [kcal/mol]
x1 = 0.0987	0.23 ± 0.0184
x1 = 0.2029	0.363 ± 0.0287
x1 = 0.2948	0.416 ± 0.0335
x1 = 0.4016	0.424 ± 0.0335
x1 = 0.4928	0.406 ± 0.0335
x1 = 0.5952	0.353 ± 0.0287
x1 = 0.6832	0.291 ± 0.0234
x1 = 0.8026	0.199 ± 0.016
x1 = 0.8759	0.129 ± 0.0103
